Usually EC50 stands for the concentration needed to bring the measured effect to its halfway point.

The test system of the test is NHACs. The test is described as follows: calcium flux assay. The format is cell-based, human. Particulars: for Emax: read-out: (A) % Efficacy. In short, it runs like this:
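FLIPR fluorescence (ex 470–495 nm, em 515–575 nm) was read before and after compound dispense at the indicated dose. Chondrocytes (NHACs), 2000 cells/well, had been dye-loaded 24 h after plating with Calcium 5 in HBSS/HEPES plus 5 mM probenecid, 1 h, room temperature.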
(Calcium flux is commonly read through the fluorescence of an indicator in the cells.)

Where two headings read alike, the source gives them in different places.

Consider `Nc1ncc([C@H]2[C@H]3O[C@H](C[C@@H]3O)[C@H]2C(=O)Nc2ccc(Cl)c(Cl)c2)cn1` [Example 60, (1R,2S,3S,4R,5S)-3-(2-aminopyrimidin-5-yl)-N-(3,4-dichlorophenyl)-5-hydroxy-7-oxabicyclo[2.2.1]heptane-2-carboxamide], for which, where the note is “Homo sapiens”, the concentration giving a half-maximal response (EC50) is greater than 50 µM and the Emax is 2%.
As to `Nc1cc([C@H]2[C@H]3O[C@H](C[C@@H]3O)[C@H]2C(=O)Nc2ccc(Cl)c(Cl)c2)ccn1` [Example 57, (1R,2S,3S,4R,5S)-3-(2-aminopyridin-4-yl)-N-(3,4-dichlorophenyl)-5-hydroxy-7-oxabicyclo[2.2.1]heptane-2-carboxamide], where the note is “Homo sapiens”, the EC50 was greater than 50 µM and the Emax amounted to 56%.
As to “(1R,2S,3S,4R,5S)-N-(5,6-dichloropyridin-3-yl)-5-hydroxy-3-(pyridin-4-yl)-7-oxabicyclo[2.2.1]heptane-2-carboxamide [Example 10]”, the “(A) % Efficacy” value is recorded as 0% and the concentration giving a half-maximal response (EC50) is greater than 50 µM.
`COc1ccc(NC(=O)[C@H]2[C@@H]3O[C@@H]([C@H]4C[C@H]43)[C@@H]2c2ccncc2)cn1` [Example 125, (1S,2S,4R,5R,6R,7S)—N-(6-methoxypyridin-3-yl)-7-(pyridin-4-yl)-8-oxatricyclo[3.2.1.0^2,4]octane-6-carboxamide]: where the note is “Homo sapiens”, the concentration for a half-maximal effect (EC50) is 17 µM and the Emax is 162%.
The like results for `O=C(Nc1ccc(Cl)c(Cl)c1)[C@@H]1[C@@H](c2ccnc(F)c2)[C@H]2O[C@@H]1C[C@H]2NCCO` [Example 173, (1R,2R,3S,4R,5R)—N-(3,4-dichlorophenyl)-3-(2-fluoropyridin-4-yl)-5-((2-hydroxyethyl)amino)-7-oxabicyclo[2.2.1]heptane-2-carboxamide] were, in that order, 27 µM and 54%.
The like results for `Cc1cc([C@H]2[C@H]3O[C@H]([C@@H]4C[C@@H]43)[C@H]2C(=O)Nc2cccc(C(F)(F)F)c2)ccn1` [Example 26, (1S,2S,4R,5R,6S,7S)-7-(2-methylpyridin-4-yl)-N-[3-(trifluoromethyl)phenyl]-8-oxatricyclo[3.2.1.0^2,4]octane-6-carboxamide] were, in that order, 23 µM and 54%.
In the case of `O=C(Nc1cnc(Cl)c(Cl)c1)[C@@H]1[C@@H]2O[C@@H]([C@H]3C[C@H]32)[C@@H]1c1ccncc1` (racemic) [Example 43, rac-(1S,2S,4R,5R,6S,7S)—N-(5,6-dichloropyridin-3-yl)-7-(pyridin-4-yl)-8-oxatricyclo[3.2.1.0^2,4]octane-6-carboxamide], under “Homo sapiens”, the EC50 was greater than 50 µM and the Emax amounted to 168%.
Consider `Nc1ncc([C@H]2[C@H]3O[C@H](C[C@@H]3F)[C@@H]2C(=O)Nc2ccc(Cl)c(Cl)c2)cn1` [Example 113, (1R,2R,3S,4R,5S)-3-(2-aminopyrimidin-5-yl)-N-(3,4-dichlorophenyl)-5-fluoro-7-oxabicyclo[2.2.1]heptane-2-carboxamide], for which, where the note is “Homo sapiens”, the EC50 came to 30 µM and the Emax stood at 103%.
The like results for `CN(C)[C@@H]1C[C@H]2O[C@@H]1[C@H](c1ccnc(F)c1)[C@H]2C(=O)Nc1cnc(Cl)c(Cl)c1` [Example 175, (1R,2R,3S,4R,5R)—N-(5,6-dichloropyridin-3-yl)-5-(dimethylamino)-3-(2-fluoropyridin-4-yl)-7-oxabicyclo[2.2.1]heptane-2-carboxamide] were, in that order, 29 µM and 186%.
On to `Cc1cc([C@@H]2[C@@H]3O[C@@H](C[C@H]3O)[C@@H]2C(=O)Nc2ccc(Cl)c(Cl)c2)ccn1` (single isomer, unassigned) [Example 53b], for which, under “Homo sapiens”, the EC50 is greater than 50 µM and the Emax was determined as 119%.
As to `COc1ccc(NC(=O)[C@@H]2[C@@H]3O[C@@H]([C@H]4C[C@H]43)[C@@H]2c2cccc(C(F)(F)F)n2)cn1` [Example 35, (1S,2S,4R,5R,6S,7S)—N-(6-methoxypyridin-3-yl)-7-(6-(trifluoromethyl)pyridin-2-yl)-8-oxatricyclo[3.2.1.0^2,4]octane-6-carboxamide], for the setting “Homo sapiens”, the EC50 was greater than 50 µM and the Emax was 0%.
